The results in this text go back to US10493046B2, “5-hydroxytryptamine 1B receptor-stimulating agent for use as a promoter of satellite cells self-renewal and/or differentiation” (INSTITUT PASTEUR, priority 2015, dated 2019).

In assay [1] the test system is satellite cells. Nature of the assay: Satellite cells in vitro in plasma of treated mice (live videomicroscopy, immunostaining). It is filed as cell-based, mouse. The settings on record: for Reserve cells (quiescent Pax7 positive cells) 14 days post-plating: plasma from fluoxetine-treated animals. On the procedure:
(§1) Muscle dissection was done as previously described in cold DMEM. Muscles were then chopped with small scissors and put in a 50 ml Falcon tube with collagenase 0.1% and trypsin 0.25% at 37° C. with gentle agitation. After 20 minutes, the supernatant was collected in 20% serum placed on ice, and the collagenase/trypsin solution was added to continue the digestion. Once muscle was completely digested, the solution was filtrated using 40 μm cell strainers. Satellite cells were cultured in 1:1 DMEM-Glutamax (Gibco#41965-039):MCDB201 (Sigma#M6770) containing 20% serum FBS (Biowest S1860). Medium was filtered using 0.22 μm filters. Cells were plated on Matrigel coating (BD Biosciences#354234) and kept in an incubator (37° C., 5% CO2). […] The thus-obtained supernatant replaced FBS in the culture medium; the rest of the medium was unchanged.
Cells isolated by FACS were plated overnight on a 24-well glass bottom plate (P24G-0-10-F; MatTek) coated with matrigel (BD Biosciences#354234) and placed in an incubator in pre-equilibrated medium (1:1 DMEM Glutamax: MCDB [Sigma-Aldrich], 20% FCS (Biowest S1860). The plate was then incubated at 37° C., 5% CO2 (Zeiss, Pecon). A Zeiss Observer.Z1 connected with a LCI PInN 10×/0.8 W phaseII objective and AxioCam camera piloted with AxioVision was used. Cells were filmed for up to 5 days, and images were taken every 30 min with brightfield and phase filters and MozaiX 3×3 (Zeiss). Raw data were transformed and presented as a video.
Those results were confirmed in vitro (FIG. 7a). […] This difference was lost when SC were plated with GR127935 (p=0.4) (FIG. 7e). The faster exit of quiescence and higher division rates were also lost when adding GR127935 in vitro (FIGS. 7f,g). The effects of the plasma from fluoxetine-treated animals were persistent when adding MDL100907 (FIGS. 7b-g).

Assay [2] deals with satellite cells. Nature of the assay: FACS-sorted satellite cells in vitro, compound added to the culture medium. It is filed as cell-based, mouse. On the procedure: as §1
Satellite cells were isolated from Tg:Pax7nGFP mice and cells were plated at 2.000 cells per cm^2. After overnight, vortioxetine was added at 10 μM. […] 14 days post-plating, a higher number of reserve cells (Pax7 positive cells that are quiescent in vitro) were detected in the vortioxetine-treated cells (9%±0.7) than in the PBS (3.5%±0.9, p=0.01), and when GR127935 inhibitor was added in vitro the number of reserve cells dropped (3.5%±0.9, p=0.9) (FIG. 11c). […] This difference in expression was lost when SC were plated with the GR127935 5-HT1 BR inhibitor (p=0.4) (FIGS. 11c-e). The positive effects of vortioxetine were lost when GR127935 was added in vitro together with vortioxetine (FIGS. 11c-e). These effects were however persistent when adding the 5-HT2 BR antagonist (FIGS. 11c-e). This means that the positive effects observed when plating vortioxetine in vitro with satellite cells is mediated via the 5HT1B receptor and not 5HT2B.
To test whether, 2 derivatives of vortioxetine, namely histidine-vortioxetine and pyrrolidinium-vortioxetine, could have similar or improved effect compared to the unmodified vortioxetine, the in vitro approach as described in section 2.2.3 above was used and the differentiation cascade of satellite cells was investigated by assessing the expression pattern of Pax7 (a marker of stemness and quiescence) and Myogenin (MyoG, a marker of differentiation) as described above in section 2.2.3. To do so, satellite cells from Tg:Pax7-nGFP were isolated by FACS and plated at 2.000 cells per cm^2 (seeded overnight). The following day, the vortioxetine, its derivatives, or the control PBS was added at 10 μM and the cells were fixed at the indicated time points.

Assay [3] concerns satellite cells. Nature of the assay: Satellite cell (SC) number in tibialis anterior of treated mice (histological count or FACS cytometry). The following applies: for Number of SC: Tg:Pax7nGFP mice. It is filed as in vivo, mouse.
Another assay concerns vessels. In words: Vessel number in tibialis anterior of treated mice (Flk1GFP/+ or CD31 immunostaining). It is filed as in vivo, mouse. The settings on record: GR127935 in osmotic pump together with vortioxetine I.P 12 days.
Assay [4] has as its system cytokines. Nature of the assay: Plasmatic cytokine levels by Luminex in treated mice. The arrangement: species or system mouse. The settings on record: fluoxetine 6 weeks in vivo; vs placebo. The text has this:
Snap frozen plasma samples (n=6 per condition) were thawed out, and supernatant was processed for Luminex® multiple cytokine and chemokine analysis (Bio-Plex® Pro™ Mouse Cytokine Standard 23-Plex, Group I and Standard 9-Plex, Group II). Normalization was done by sample weight of frozen muscle. […]

For another assay, the system named is HUVEC. Nature of the assay: In vitro HUVEC assay on cytodex beads in plasma of treated mice. Format: cell-based, human. The settings on record: plasma from mice treated P.O 6 weeks; 4 days post plating. On the procedure:
C57Bl/6 mice were treated P.O for 6 weeks and plasma was extracted from blood. HUVEC cells were then plated on cytodex beads and cultured in either of the plasma. The growth of HUVEC incubated with plasma coming from treated animals was faster 4 days post plating (p≤0.0001) (FIGS. 2m-o).

In assay [5] the test system is cytokines. In words: Plasmatic cytokine levels by Luminex after notexin injury. The settings on record: injured with fluoxetine treatment. Format: in vivo, mouse. The text has this:
(§2) Snap frozen plasma samples (n=6 per condition) were thawed out, and supernatant was processed for Luminex® multiple cytokine and chemokine analysis (Bio-Plex® Pro™ Mouse Cytokine Standard 23-Plex, Group I and Standard 9-Plex, Group II). Normalization was done by sample weight of frozen muscle.

The test system of assay [6] is cytokines. Nature of the assay: Plasmatic cytokine levels by Luminex in Mdx mice. It is filed as in vivo, mouse. The following applies: fluoxetine P.O. 6 weeks.
From the text: as §2

The subject of a further assay is Mdx mice. Nature of the assay: Grip strength test in mdx mice. Format: in vivo, mouse. The following applies: fluoxetine treated mdx mice, 6 weeks; 4 limbs. The method, then:
The grip strength test is a non-invasive method designed to evaluate mouse muscle force in vivo. A grip meter (Bio-GT3, BIOSEB), attached to a force transducer, measures the peak force generated. […] Five trials were conducted and, before statistical analysis, a mean value was calculated for each mouse using the tree median data. Results are expressed as the result of tree peak forces (in g), normalized to the body weight (in g).
This was confirmed on soleus muscle (data not shown).

[7] abbreviates: 20% plasma from fluoxetine treated C57Bl/6 mice, live-videomicroscopy.

With `COc1ccc(NC(=O)c2ccc(-c3ccc(-c4noc(C)n4)cc3C)cc2)cc1N1CCN(C)CC1` [GR127935], the “Pax7 positive cells 4 days post-plating” value with satellite cells [1] (plasma from fluoxetine treated animals incubated with GR127935) is reported as 35.25%; with satellite cells [2] (vortioxetine 10 μM incubated with the GR127935 inhibitor), 25.5%. Further, the “Reserve cells (quiescent Pax7 positive cells) 14 days post-plating” value in the assay on satellite cells [1] (GR127935 added in vitro) was determined as 4.5%; in the assay on satellite cells [2] (vortioxetine 10 μM, GR127935 inhibitor added in vitro), 3.5%. For the same compound, in the assay with satellite cells [1] (plasma from fluoxetine-treated mice plus GR127935), the “MyoG expression difference when plated with GR127935” value was “lost”. In addition, the “Faster exit of quiescence and higher division rates when adding GR127935” value in the assay on satellite cells [1] (plasma from fluoxetine-treated mice plus GR127935 in vitro) is reported as “lost”. In addition, in the assay with satellite cells [2] (GR127935 added in vitro together with vortioxetine 10 μM), the “Positive effects of vortioxetine (incl. MyoG expression difference) when GR127935 added” value is “lost”. Besides, the “Number of SC” value with satellite cells [3] (GR127935 in osmotic pump together with fluoxetine P.O 6 weeks) was determined as 4674±1414 SC per TA. In addition, the Number of vessels with vessels was 928±207 vessels per mm^2.

`CNCCC(Oc1ccc(C(F)(F)F)cc1)c1ccccc1` (stereo not shown) [fluoxetine]: in the assay on cytokines [4], the “Levels of IL-1a, IL-1b, IL-2 and eotaxin” value is reported as “downregulated”; the “Levels of IL-4 and IL-13” value was “upregulated”. Moreover, the “Growth of HUVEC vs placebo plasma” value with HUVEC was “faster”. Moreover, the “IL-6 level after injury” value in the assay with cytokines [5] amounted to 2459 ± 920 pg/µL. Besides, in the assay with satellite cells [1] (20% plasma from fluoxetine treated C57Bl/6 mice), the “Myogenine positive cells 4 days post-plating” value is 34.75±6.3 % of total plated cells. Also, in the assay with satellite cells [1] (setting [7]), the Division rate was found to be 8.7 ± 0.7 h and the “First satellite cells division, time post-plating” value is recorded as 26.45 h. In addition, the “Pax7 positive cells 4 days post-plating” value in the assay with satellite cells [1] (plasma from fluoxetine treated animals) was determined as 24%. In addition, the “Reserve cells (quiescent Pax7 positive cells) 14 days post-plating” value in the assay on satellite cells [1] is 9.4%. The “Myogenin (MyoG) expression increase” value in the assay with satellite cells [1] (plasma from fluoxetine-treated mice vs placebo) is 3 times increase. The “MyoD (activation marker) expression between conditions” value with satellite cells [1] (plasma from fluoxetine-treated mice vs placebo vs GR127935) is recorded as “did differ at any time investigated”. Further, in the assay on cytokines [6], the “Level of IL6” value is 34.52 ± 21 pg/mL and the “Level of IL10” value worked out at 99.6 ± 56 pg/mL. For the same compound, the “Total muscle force increase” value in the assay on Mdx mice came out at 56%. In addition, the “Number of SC by histological count” value with satellite cells [3] (fluoxetine 18 mg/kg, tibialis anterior, TgPax7nGFP mouse) turned out to be 16.3±5.4 SC per mm^2. The “Number of SC” value in the assay on satellite cells [3] (fluoxetine P.O 6 weeks and PBS in osmotic pump) amounted to 7283±2325 SC per TA.
